The values that follow are results of earlier work, collected in patent EP2133696A1, “Very low concentrations of troponin I or T for assessing a cardiovascular risk with respect to the administration of anti-inflammatory drugs” (Spanuth, Eberhardt, priority 2008, dated 2009).

As to `CS(=O)(=O)c1ccc(C2=C(c3ccccc3)C(=O)OC2)cc1` [Rofecoxib], where the note is “25 mg rofecoxib compared with a placebo, after 18 months of follow-up”, the “additional cardiovascular incidents (myocardial infarction, stroke)” value is recorded as 16 per 1,000 treated patients. In addition, the blood pressure levels result (25 mg rofecoxib versus placebo, early post-observation phase) was “higher blood pressure levels”. The “rise in the rate of serious thromboembolic incidents” value (APPROVE study, led to premature discontinuation, patients without any recognisable cardiovascular risk) is 3.9 times.
